Earlier results on 1 substance are cited in US20080160086A1, “Delivery Systems For Calcium” (Scepter Holdings, Inc., priority 2004, published 2008).

The conditions of the data set: in humans; U.S. Pat. No. 6,582,722.

Regarding “calcium picolinate [calcium picolinate chelate]”, the bioavailability result is recorded as “high bioavailability”.
